According to patent US20250188032A1, “NITROGEN-CONTAINING HETEROCYCLIC COMPOUNDS AND USES THEREOF” (BNH RESEARCH CO., LTD., priority 2022, published 2025):

How the values were obtained:
[1] = tested on: BDNF and GluN2B expression in SH-SY5Y cells; assay: Expression of BDNF and GluN2B in SH-SY5Y cells; assay type: cell-based, human; settings: 1 μM, application for 6 and 24 hours
Method: (§1) Human undifferentiated neuroblastoma cell line SH-SY5Y and human embryonic kidney cell line (HEK)-293T were purchased from Korean Cell Line Bank (Korea) and Takara (Japan), respectively. Cells were grown in HyClone Minimal Essential Medium (MEM) and Dulbecco's Modified Eagle Medium (DMEM), respectively, supplemented with 10% (v/v) fetal bovine serum (FBS), penicillin (100 U/mL), and streptomycin ([…]). Cells were maintained in a humidified atmosphere of 95% air and 5% CO2 at 37° C. Cells were passaged 10 times at maximum. Cells were dissociated using 0.05% trypsin-EDTA solution and the cells were seeded in new culture dishes for maintenance.

SH-SY5Y cells = assay: Cytotoxicity test (CCK-8 cell viability) in SH-SY5Y cells; assay type: cell-based, human; settings: 0, 0.1, 1, 10, 100 μM
Method: as §1
To examine the cytotoxicity of compounds described herein in human cell lines, SH-SY5Y and 293T cells were used. […] Finally, 10 μL of CCK-8 reagent (Dojindo Laboratories, Rockville, MD) was added to each well, and after incubation at 37° C. for 3 minutes, the OD at 450 nm was measured using a multifunction microplate reader (Tecan Infinite M200 Pro). These measurements were compared to that of a control and expressed as a percentage of the control to calculate cell viability. The IC50 value was calculated using SPSS software. To do this, the absorbance of the blank wells with only growth medium is subtracted from the values or the wells with cells. […]

[2] = tested on: APP/PS1 mice sensory cerebral cortex; assay: TC potency and GABA/AMPA ratio in sensory cortex of Alzheimer's animal model; assay type: in vivo
Method: For intravenous injection, the tail vein injection method was used. […] In the drug injection test, the compound was administered once a day for about 11 to 13 days. 5 mice were used for the compound administration group and the control group, respectively.
For TC or hippocampus slice preparation. 9 to 10 weeks-old male C57BL/6J mice were anesthetized with isoflurane. Then, the brain was rapidly cooled via transcardial perfusion with ice-cold sucrose-artificial cerebrospinal fluid (aCSF). The brain was removed and placed in ice-cold sucrose aCSF. Paracoronal slices were prepared at an angle of 50° relative to the midline on a ramp at an angle of 10°. […]
For the minimal stimulation protocol (Potency), VB thalamic stimulation intensity was adjusted to find the lowest intensity that elicited a mixture of synaptic responses and failures. Failure rate was calculated as the number of failures/total number of trials. Potency was calculated as the mean EPSC peak amplitude excluding failures (see Chittajallu & Isaac, 2010, Emergence of cortical inhibition by coordinated sensory-driven plasticity at distinct synaptic loci, DOI: 10.1038/nn.2639; see Isaac et al., 1997, Silent Synapses during Development of Thalamocortical Inputs, https://doi.org/10.1016/S08966273((0)80267-6; and see Stevens & Wang, 1995, Facilitation and depression at single central synapses, DOI: 10.1016/08966273(95)90223-6). […]

SMILES | BDNF expression [1] | GluN2B expression [1] | Change in cell viability (SH-SY5Y cells) | Balance of excitation/inhibition (GABA/AMPA ratio) [2] | Excitatory TC synaptic potency (TC potency) [2]
CC1CCC(C(=O)O)CN1C(=O)Cc1ccc(F)cc1Cl (racemic) [BnH12001, 1-(2-(2-chloro-4-fluorophenyl)acetyl)-6-methylpiperidine-3-carboxylic acid] | augmented | augmented | no significant change in cell viability | – | –
C[C@@H]1CC[C@H](C(=O)O)CN1C(=O)Cc1ccc(F)cc1Cl [BnH12001 enantiomer (3S,6R, 98%<), (3S,6R)-1-(2-(2-chloro-4-fluorophenyl)acetyl)-6-methylpiperidine-3-carboxylic acid] | – | – | – | maintaining the balance of excitation/inhibition | increased the excitatory TC synaptic potency
